Test results: ChEMBL document CHEMBL1150251, “SAR and QSAR study on 2-aminothiazole derivatives, modulators of transcriptional repression in Huntington's disease” (Bioorg Med Chem, 2008)

Test system: ST14A
Assay: Modulation of RE1/NRSE expressed in ST14A cells assessed as increase in luciferase reporter activity at 50 nM after 72 hrs relative to control
Format: cell-based

Structure (SMILES)	Activity
Cc1ccn2c(-c3csc(NCc4ccco4)n3)c(C)nc2c1	0.99
Cc1ccn2c(-c3csc(NCc4ccccc4)n3)c(C)nc2c1	1.3
COc1ccccc1Nc1nc(-c2c(C)nc3ncccn23)cs1	0.97
Cc1nc2ccccn2c1-c1csc(Nc2ccccc2)n1	1.01
Cc1ccn2c(-c3csc(Nc4ccc(O)cc4)n3)c(C)nc2c1	1.08
COc1ccc(Nc2nc(-c3c(C)nc4ncccn34)cs2)cc1	2.29
COc1ccc(Nc2nc(-c3c(C)nc4ccccn34)cs2)cc1	2
COc1cc(Br)c(Nc2nc(-c3c(C)nc4ncccn34)cs2)c(Br)c1	1.03
CCN(CC)c1ccc(Nc2nc(-c3c(C)nc4ccccn34)cs2)cc1	1.09
COc1cc(Br)c(Nc2nc(-c3c(C)nc4cc(C)ccn34)cs2)c(Br)c1	1.07
Cc1nc2ccccn2c1-c1csc(NCc2ccccc2)n1	0.97
Cc1nc2ccccn2c1-c1csc(Nc2ccc(O)cc2)n1	1.02
Cc1nc2ccccn2c1-c1csc(NC(=O)c2ccc(Br)cc2)n1	0.94
CCOc1ccccc1Nc1nc(-c2c(C)nc3cc(C)ccn23)cs1	0.94
Cc1nc2ccccn2c1-c1csc(Nc2ccc(N)cc2)n1	1.28
COc1ccc(Cl)c(Nc2nc(-c3c(C)nc4ncccn34)cs2)c1	0.74
Cc1nc2ccccn2c1-c1csc(NC(=O)c2ccco2)n1	0.94
Cc1nc2ccccn2c1-c1csc(Nc2ccc(Br)cc2)n1	1.9
CCN(CC)c1ccc(Nc2nc(-c3c(C)nc4cc(C)ccn34)cs2)cc1	1.06
COc1ccc(Cl)c(Nc2nc(-c3c(C)nc4sccn34)cs2)c1	0.91
Cc1ccn2c(-c3csc(Nc4cccc(C(=O)O)c4)n3)c(C)nc2c1	1.14
Cc1ccn2c(-c3csc(Nc4ccc(N(C)C)cc4)n3)c(C)nc2c1	2.55
C=CCNc1nc(-c2c(C)nc3ccccn23)cs1	0.91

Structure (SMILES)	Activity
Cc1nc2ncccn2c1-c1csc(Nc2ccc(N(C)C)cc2)n1	3.34
Cc1nc2ccccn2c1-c1csc(NCc2ccco2)n1	1.01
Cc1nc2sccn2c1-c1csc(Nc2ccc(N(C)C)cc2)n1	1.8
CCN(CC)c1ccc(Nc2nc(-c3c(C)nc4ncccn34)cs2)cc1	1.16
Cc1nc2ccccn2c1-c1csc(N)n1	0.87
CCN(CC)c1ccc(Nc2nc(-c3c(C)nc4sccn34)cs2)cc1	1.04
Cc1nc2ccccn2c1-c1csc(NC(=O)c2ccncc2)n1	1
Cc1nc2ncccn2c1-c1csc(Nc2ccc(O)cc2)n1	0.89
Cc1ccn2c(-c3csc(Nc4ccc(N)cc4)n3)c(C)nc2c1	1.14
CN(C)c1ccc(Nc2nc(-c3ccccc3)cs2)cc1	1.3
Cc1ccn2c(-c3csc(Nc4ccc(C(=O)O)cc4)n3)c(C)nc2c1	1.12
Cc1nc2ccccn2c1-c1csc(NC(=O)c2cccnc2)n1	0.98
COc1ccc(Cl)c(Nc2nc(-c3c(C)nc4ccccn34)cs2)c1	1.09
CN(C)c1ccc(Nc2nc(-c3ccncc3)cs2)cc1	1.13
CCOc1ccc(Nc2nc(-c3c(C)nc4cc(C)ccn34)cs2)cc1	1.88
COc1ccc(Nc2nc(-c3c(C)nc4cc(C)ccn34)cs2)cc1	2.19
Cc1nc(N)sc1-c1csc(Nc2ccc(N(C)C)cc2)n1	1.23
Cc1nc2sccn2c1-c1csc(Nc2ccc(N)cc2)n1	1.14
Cc1ccnc(Nc2nc(-c3c(C)nc4ccccn34)cs2)c1	0.98
Cc1nc2ccccn2c1-c1csc(Nc2cccc(O)c2)n1	1.04
Cc1nc2sccn2c1-c1csc(Nc2ccc(O)cc2)n1	0.95
Cc1nc2ccccn2c1-c1csc(NC(=O)c2ccccc2)n1	1.09
